# From ChEMBL document CHEMBL5042504 (J Med Chem, 2022)
# Calls of active or inactive are those of the source. No cut-off for these calls is given here.
# Columns and labels:
# HL-60 = assay: Antiproliferative activity against human HL-60 cells assessed as reduction in cell viability after 48 hrs by multiplate reader method; conditions: HL-60, 48 h
# Histone deacetylase 5 = Histone deacetylase 5 (Homo sapiens, UniProt Q9UQL6); assay: Inhibition of human recombinant HDAC5 using Boc-Lys(triflouroacetyI)-AMC substrate incubated for 2 hrs by fluorescence based assay
# Histone deacetylase 7 = biological target: T1, Histone deacetylase 7 (Homo sapiens, UniProt Q8WUI4); assay: Inhibition of human recombinant HDAC7 using Boc-Lys(triflouroacetyI)-AMC substrate incubated for 2 hrs by fluorescence based assay
# T1 sequence (Q8WUI4 whole entry): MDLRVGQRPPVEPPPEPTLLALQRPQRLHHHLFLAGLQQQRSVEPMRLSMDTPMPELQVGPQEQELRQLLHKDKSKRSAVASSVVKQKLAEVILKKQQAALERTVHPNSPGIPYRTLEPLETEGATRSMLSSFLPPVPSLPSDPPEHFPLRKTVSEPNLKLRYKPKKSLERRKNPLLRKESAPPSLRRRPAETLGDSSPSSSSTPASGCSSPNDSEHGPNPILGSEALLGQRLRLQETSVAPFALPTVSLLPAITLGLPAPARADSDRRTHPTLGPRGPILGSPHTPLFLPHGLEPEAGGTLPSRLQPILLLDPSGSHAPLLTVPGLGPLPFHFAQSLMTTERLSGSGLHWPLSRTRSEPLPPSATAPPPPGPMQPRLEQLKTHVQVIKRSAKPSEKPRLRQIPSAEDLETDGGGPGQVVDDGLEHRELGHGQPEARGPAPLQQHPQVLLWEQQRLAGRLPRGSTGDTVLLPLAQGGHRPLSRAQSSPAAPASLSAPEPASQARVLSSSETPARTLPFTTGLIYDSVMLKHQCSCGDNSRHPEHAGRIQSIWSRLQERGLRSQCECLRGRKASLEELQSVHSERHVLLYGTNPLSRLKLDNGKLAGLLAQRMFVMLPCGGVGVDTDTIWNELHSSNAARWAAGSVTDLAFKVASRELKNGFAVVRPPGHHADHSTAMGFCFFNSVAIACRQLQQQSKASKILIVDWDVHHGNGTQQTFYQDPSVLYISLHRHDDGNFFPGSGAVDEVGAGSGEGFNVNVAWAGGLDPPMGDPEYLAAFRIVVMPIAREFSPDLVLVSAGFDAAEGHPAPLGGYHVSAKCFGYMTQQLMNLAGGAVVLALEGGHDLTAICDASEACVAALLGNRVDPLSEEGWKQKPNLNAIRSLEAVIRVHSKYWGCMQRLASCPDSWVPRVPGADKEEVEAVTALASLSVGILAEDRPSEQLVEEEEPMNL
# Histone deacetylase 4 = Histone deacetylase 4 (Homo sapiens, UniProt P56524); assay: Inhibition of human recombinant HDAC4 using Boc-Lys(triflouroacetyI)-AMC substrate incubated for 2 hrs by fluorescence based assay
# MOLM-13 = assay: Antiproliferative activity against human MOLM-13 cells assessed as reduction in cell viability measured after 48 hrs by multiplate reader method; conditions: MOLM-13, 48 h
# U-937 = assay: Antiproliferative activity against human U-937 cells assessed as reduction in cell viability after 48 hrs by MTT assay; conditions: U-937, 48 h
# Histone deacetylase 9 = Histone deacetylase 9 (Homo sapiens, UniProt Q9UKV0); assay: Inhibition of human recombinant HDAC9 using Boc-Lys(triflouroacetyI)-AMC substrate incubated for 2 hrs by fluorescence based assay
# MV4-11 [1] = assay: Up regulation of acetylated histoneH4 in expression in human MV4-11 cells at 100 nM measured after 24 hrs by Western blot analysis; assay type: functional, cell-based
# RS4-11 = assay: Antiproliferative activity against human RS4-11 cells assessed as reduction in cell viability measured after 48 hrs by multiplate reader method; conditions: RS4-11, 48 h
# Histone deacetylase 8 = biological target: T2, Histone deacetylase 8 (Homo sapiens, UniProt Q9BY41); assay: Inhibition of human recombinant HDAC8 using Boc-Lys(triflouroacetyI)-AMC substrate incubated for 2 hrs by fluorescence based assay
# T2 sequence (Q9BY41 whole entry): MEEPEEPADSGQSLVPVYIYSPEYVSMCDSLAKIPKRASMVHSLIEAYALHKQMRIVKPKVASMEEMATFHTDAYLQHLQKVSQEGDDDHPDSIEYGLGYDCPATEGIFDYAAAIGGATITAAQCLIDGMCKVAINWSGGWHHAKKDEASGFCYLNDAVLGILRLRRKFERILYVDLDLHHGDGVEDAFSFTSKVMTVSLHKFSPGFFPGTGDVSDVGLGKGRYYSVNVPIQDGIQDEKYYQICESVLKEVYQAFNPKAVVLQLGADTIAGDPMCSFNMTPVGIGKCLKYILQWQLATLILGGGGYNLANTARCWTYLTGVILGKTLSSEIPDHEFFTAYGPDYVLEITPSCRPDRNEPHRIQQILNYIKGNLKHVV
# Histone deacetylase 11 = biological target: T3, Histone deacetylase 11 (Homo sapiens, UniProt Q96DB2); assay: Inhibition of human recombinant HDAC11 using Boc-Lys(triflouroacetyI)-AMC substrate incubated for 2 hrs by fluorescence based assay
# T3 sequence (Q96DB2 whole entry): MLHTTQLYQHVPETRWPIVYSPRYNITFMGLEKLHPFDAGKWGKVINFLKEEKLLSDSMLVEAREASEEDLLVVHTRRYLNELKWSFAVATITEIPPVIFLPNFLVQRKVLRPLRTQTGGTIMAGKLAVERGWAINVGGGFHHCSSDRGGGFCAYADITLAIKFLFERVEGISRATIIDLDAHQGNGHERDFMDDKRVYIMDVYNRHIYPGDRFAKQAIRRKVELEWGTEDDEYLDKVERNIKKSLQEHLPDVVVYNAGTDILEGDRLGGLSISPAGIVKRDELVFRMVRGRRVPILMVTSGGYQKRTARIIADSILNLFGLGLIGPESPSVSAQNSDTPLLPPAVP
# MV4-11 [2] = assay: Up regulation of acetylated histoneH4 ine expression in human MV4-11 cells at 200 nM measured after 24 hrs by Western blot analysis; assay type: functional, cell-based
# Chain of Histone deacetylase 5 (Q9UQL6 whole entry): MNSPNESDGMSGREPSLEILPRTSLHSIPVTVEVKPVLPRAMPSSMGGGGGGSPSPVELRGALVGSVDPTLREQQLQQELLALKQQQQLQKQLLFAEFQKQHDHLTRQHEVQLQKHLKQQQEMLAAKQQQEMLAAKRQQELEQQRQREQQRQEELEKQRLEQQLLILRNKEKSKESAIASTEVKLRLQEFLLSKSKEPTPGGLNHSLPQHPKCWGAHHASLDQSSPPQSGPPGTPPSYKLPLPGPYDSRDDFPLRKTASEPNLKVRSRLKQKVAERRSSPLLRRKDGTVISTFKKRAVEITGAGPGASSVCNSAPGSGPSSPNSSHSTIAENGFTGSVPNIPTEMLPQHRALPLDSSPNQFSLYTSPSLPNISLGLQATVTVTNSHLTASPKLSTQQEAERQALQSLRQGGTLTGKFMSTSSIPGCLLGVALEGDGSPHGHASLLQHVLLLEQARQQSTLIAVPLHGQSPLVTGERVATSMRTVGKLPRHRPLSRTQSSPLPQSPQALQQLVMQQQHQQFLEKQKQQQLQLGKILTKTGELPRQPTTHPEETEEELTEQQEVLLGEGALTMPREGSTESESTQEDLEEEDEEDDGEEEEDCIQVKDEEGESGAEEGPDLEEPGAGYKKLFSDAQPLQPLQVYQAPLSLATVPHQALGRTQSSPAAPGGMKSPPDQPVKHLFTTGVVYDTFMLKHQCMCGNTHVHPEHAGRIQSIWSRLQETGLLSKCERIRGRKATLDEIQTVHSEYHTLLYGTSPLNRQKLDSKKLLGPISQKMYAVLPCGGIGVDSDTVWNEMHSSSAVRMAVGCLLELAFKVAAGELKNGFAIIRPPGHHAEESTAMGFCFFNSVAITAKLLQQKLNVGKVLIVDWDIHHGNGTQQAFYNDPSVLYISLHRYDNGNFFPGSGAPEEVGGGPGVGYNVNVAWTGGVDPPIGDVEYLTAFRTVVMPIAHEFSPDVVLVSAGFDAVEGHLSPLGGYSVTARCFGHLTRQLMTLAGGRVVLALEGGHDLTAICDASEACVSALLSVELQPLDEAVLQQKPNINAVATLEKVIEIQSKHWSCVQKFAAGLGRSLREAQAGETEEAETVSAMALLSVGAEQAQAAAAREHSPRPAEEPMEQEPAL
# Chain of Histone deacetylase 4 (P56524 whole entry): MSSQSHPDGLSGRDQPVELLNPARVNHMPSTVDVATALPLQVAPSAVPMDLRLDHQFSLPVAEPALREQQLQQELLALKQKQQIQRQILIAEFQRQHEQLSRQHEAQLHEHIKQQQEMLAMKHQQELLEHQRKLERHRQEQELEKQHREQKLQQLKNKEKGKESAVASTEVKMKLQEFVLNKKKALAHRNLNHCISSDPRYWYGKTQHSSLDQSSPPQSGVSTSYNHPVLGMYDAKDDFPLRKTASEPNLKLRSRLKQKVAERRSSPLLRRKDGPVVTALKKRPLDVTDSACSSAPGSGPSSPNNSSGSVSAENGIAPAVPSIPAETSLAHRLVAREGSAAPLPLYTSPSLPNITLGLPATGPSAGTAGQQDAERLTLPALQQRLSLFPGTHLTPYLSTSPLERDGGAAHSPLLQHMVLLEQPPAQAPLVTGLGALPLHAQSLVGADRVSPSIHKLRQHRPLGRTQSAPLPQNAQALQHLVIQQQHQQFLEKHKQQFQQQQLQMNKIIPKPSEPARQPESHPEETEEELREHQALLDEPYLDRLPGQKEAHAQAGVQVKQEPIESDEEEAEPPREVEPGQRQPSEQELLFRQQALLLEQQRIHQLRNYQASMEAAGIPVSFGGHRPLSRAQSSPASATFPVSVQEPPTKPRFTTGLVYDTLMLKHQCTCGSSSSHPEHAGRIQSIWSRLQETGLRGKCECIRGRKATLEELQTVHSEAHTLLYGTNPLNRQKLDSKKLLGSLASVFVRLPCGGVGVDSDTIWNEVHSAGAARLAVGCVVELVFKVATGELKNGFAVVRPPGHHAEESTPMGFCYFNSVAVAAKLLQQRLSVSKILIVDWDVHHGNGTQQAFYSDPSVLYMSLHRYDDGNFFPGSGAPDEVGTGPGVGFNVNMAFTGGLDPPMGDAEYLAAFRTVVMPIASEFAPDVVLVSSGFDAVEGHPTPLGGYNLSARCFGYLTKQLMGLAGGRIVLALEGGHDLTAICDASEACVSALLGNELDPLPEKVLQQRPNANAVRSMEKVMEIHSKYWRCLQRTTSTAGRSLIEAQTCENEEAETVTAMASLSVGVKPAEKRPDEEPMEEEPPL
# Chain of Histone deacetylase 9 (Q9UKV0 whole entry): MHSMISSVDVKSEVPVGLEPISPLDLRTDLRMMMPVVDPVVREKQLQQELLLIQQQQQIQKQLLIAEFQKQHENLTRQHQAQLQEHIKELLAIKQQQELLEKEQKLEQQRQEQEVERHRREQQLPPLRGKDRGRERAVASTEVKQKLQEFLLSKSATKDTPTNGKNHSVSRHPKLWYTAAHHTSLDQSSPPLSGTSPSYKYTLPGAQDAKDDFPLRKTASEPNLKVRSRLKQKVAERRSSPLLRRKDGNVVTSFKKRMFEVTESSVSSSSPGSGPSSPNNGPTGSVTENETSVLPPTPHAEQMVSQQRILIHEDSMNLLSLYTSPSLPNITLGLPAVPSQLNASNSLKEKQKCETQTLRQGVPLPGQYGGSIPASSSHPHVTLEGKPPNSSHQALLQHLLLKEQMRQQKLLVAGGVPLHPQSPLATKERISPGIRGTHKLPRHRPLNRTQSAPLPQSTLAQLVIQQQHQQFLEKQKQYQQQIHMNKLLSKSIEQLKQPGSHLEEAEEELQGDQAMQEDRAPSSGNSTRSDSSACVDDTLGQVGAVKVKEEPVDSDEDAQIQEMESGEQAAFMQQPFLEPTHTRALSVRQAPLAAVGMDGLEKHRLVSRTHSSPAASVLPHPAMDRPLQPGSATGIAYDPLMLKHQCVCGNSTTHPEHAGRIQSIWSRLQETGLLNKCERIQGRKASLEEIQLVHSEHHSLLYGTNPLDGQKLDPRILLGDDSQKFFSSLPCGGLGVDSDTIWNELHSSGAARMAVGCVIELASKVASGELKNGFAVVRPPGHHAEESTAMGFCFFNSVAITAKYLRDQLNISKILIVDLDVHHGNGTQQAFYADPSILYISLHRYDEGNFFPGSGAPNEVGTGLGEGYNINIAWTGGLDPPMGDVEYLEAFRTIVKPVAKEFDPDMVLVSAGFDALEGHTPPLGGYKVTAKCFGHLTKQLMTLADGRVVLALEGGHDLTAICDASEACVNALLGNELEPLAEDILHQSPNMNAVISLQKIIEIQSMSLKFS
IC50 (HL-60) [nM],IC50 (Histone deacetylase 5) [nM],IC50 (Histone deacetylase 7) [nM],IC50 (Histone deacetylase 4) [nM],IC50 (MOLM-13) [nM],IC50 (U-937) [nM],IC50 (Histone deacetylase 9) [nM],IC50 (RS4-11) [nM],IC50 (Histone deacetylase 8) [nM],IC50 (Histone deacetylase 11) [nM],SMILES,Activity (MV4-11 [1]),Activity (MV4-11 [2])
51.7,> 5000,> 5000,> 5000,103,161,> 5000,82,> 5000,> 5000,CCCNNC(=O)c1ccc(CNC(=O)/C=C/c2ccccc2)cc1,Active,Active
26.2,> 5000,> 5000,> 5000,40.4,60.5,> 5000,31.5,> 5000,> 5000,CCCNNC(=O)c1ccc(CNC(=O)c2cc3ccccc3[nH]2)cc1,Active,Active
